Experimental data published in patent US4427671A, “Steroids esterified in position 17 and thioesterified in position 21, a process for preparing them and their use as medicaments” (priority 1981, dated 1984).

Assays:
Assay type in all cases: in vivo, male Sprague-Dawley I.O.P.S. rats
granuloma = assay: Local anti-inflammatory activity: inhibition of granuloma formation around implanted cotton wool pellet; conditions: Table 1; for R 1 (relative local anti-inflammatory activity compared with betamethasone 17,21-dipropionate): D.P.B. = 1, calculated from ED50; for ED50 (local anti-inflammatory activity, 50% inhibition in granuloma weight): rat, cotton pellet granuloma, six days after implantation
Procedure: A. Winter and C. C. Porter (J. Am. Pharm. Ass. 1957, 46, 9, pages 515-519).
(§1) The principle of the test consists in implanting a pellet of cotton wool in the dorsal subcutaneous tissue of the animal. The corticoids to be studied are added to the pellet so that the following tests can be carried out:
(1) Determination of the local anti-inflammatory activity
The presence of products within the pellet may inhibit or prevent the formation of a granuloma.
(§2) The animals are divided into random homogeneous groups of 10 male Sprague-Dawley I.O.P.S. rats with a body weight of between 100 and 120 grams.
(§3) The pellets to be implanted weigh from 35 to 40 mg and are prepared from balls of dental cotton wool. Before being inserted, each pellet is weighed and impregnated with the precise quantity of the product which is to be studied, dissolved in 0.2 ml of chloroform. The chloroform is eliminated by evaporation over a period of 24 hours at ambient temperature.
(§4) Before implantation, each pellet is impregnated with a solution of antibiotics:
Streptomycin 0.1 gram/ml.
(§5) The animals are anaesthetised with ether, and then two pellets are implanted in each animal in the dorsal subcutaneous tissue, on each side of the median line:
(§6) on the left, the pellet containing the product to be tested (treated animal) or the carrier only (control animal);
(§7) on the right, the pellet containing the carrier only.
(§8) The animals are given normal food and are sacrificed six days after the pellets have been implanted.
(1) Local anti-inflammatory activity
The pellets surrounded by granulomatous tissue are carefully removed and weighed, and then dried until a constant weight is obtained.
The relative activity of the test products compared with betamethasone 17,21-dipropionate is calculated according to the following equation: [formula]

[1] = Systemic activity after local administration: effect on weight gain
Procedure: (§9) The pharmacological activity of the products described in the invention was tested in the rat using a technique similar to that described by C. A. Winter and C. C. Porter (J. Am. Pharm. Ass. 1957, 46, 9, pages 515-519).
as §1
(§10) (2) Determination of the systemic activity of the products after local administration
(§11) Local application of the corticoids may result, inter alia, in:
(b) Disruption of the protein metabolism which causes tissue fusion, resulting in an inhibition of the weight increase in animals.
as §2, §3, §4, §5, §6, §7, §8
(b) Effect on weight gain
The weight gain over six days is determined on the animals before they are sacrificed.
The activity of the products was expressed as the percentage inhibition in the weight gain of the treated animals compared with the weight gain in the control animals.
The ED 30 which corresponds to a 30% inhibition in the weight gain was determined.

thymus = assay: Systemic activity after local administration: effect on the weight of the thymus
Procedure: as §9, §1, §10, §11
(a) a reduction in the defence systems of the organism, the most notable sign of which is a reduction in the weight of the animals' thymuses.
as §2, §3, §4, §5, §6, §7, §8
(2) Determination of the systemic effect
The thymuses are taken from the same animals and weighed. Using the same type of calculation, an ED 50 is determined, which corresponds to the dosage of product resulting in a 50% decrease in weight of the thymuses, compared with the control animals.

[2] = D.P.B. = 1, calculated from ED30, Table 3
[3] = rat, local application, weight gain over six days, Table 3
[4] = D.P.B. = 1, calculated from ED50, Table 2
[5] = rat, local application, six days, Table 2

Structure (SMILES)	R 1 (relative local anti-inflammatory activity compared with betamethasone 17,21-dipropionate) (granuloma)	ED50 (local anti-inflammatory activity, 50% inhibition in granuloma weight) (granuloma)	R 3 (relative activity on weight gain compared with D.P.B.) [1, 2]	ED30 (30% inhibition in the weight gain) [1, 3]	R 2 (relative effect on thymus weight compared with D.P.B.) (thymus; [4])	ED50 (50% decrease in weight of the thymuses) (thymus; [5])	ED30 (30% inhibition in the weight gain) ([1]; rat, in vivo, 8640 min)	R 3 (relative activity on weight gain compared with D.P.B.) ([1]; rat, in vivo, 8640 min)	ED50 (50% decrease in weight of the thymuses) (thymus; rat, in vivo)	R 2 (relative effect on thymus weight compared with D.P.B.) (thymus; rat, in vivo, 8640 min)	ED50 (50% decrease in weight of the thymuses) (thymus; rat, in vivo, 8640 min)
CCC(=O)OCC(=O)[C@@]1(OC(=O)CC)[C@@H](C)C[C@H]2[C@@H]3CCC4=CC(=O)C=C[C@]4(C)[C@@]3(Cl)[C@@H](O)C[C@@]21C [Beclomethasone dipropionate, beclomethasone 17,21-dipropionate, reference compound]	< 0.2	> 5 mg/pellet	0.16	5 mg/pellet	0.27	3.1 mg/pellet					
CCC(=O)OCC(=O)C1(OC(=O)CC)C(C)CC2C3CCC4=CC(=O)C=CC4(C)C3(F)C(O)CC21C (stereo not drawn) [D.P.B., betamethasone 17,21-dipropionate, reference compound]	1	1.610 mg/pellet	1	> 0.8 mg/pellet	1	0,86 mg/pellet					
CCCCC(=O)O[C@]1(C(=O)CSC(=O)CCCC)CC[C@H]2[C@@H]3CCC4=CC(=O)CC[C@]4(C)[C@H]3[C@@H](O)C[C@@]21C [Ex. 1, 11β-hydroxy-pregn-4-ene-3,20-dione (or hydrocortisone) 17-valerate, 21-thiovalerate]	> 8	< 0.200 mg/pellet					> 3.2 mg/pellet	< 0.25	zero to 3.2	< 0.27	
CCCCC(=O)O[C@]1(C(=O)CSC(=O)C(C)(C)C)CC[C@H]2[C@@H]3CCC4=CC(=O)CC[C@]4(C)[C@H]3[C@@H](O)C[C@@]21C [Ex. 2, 11β-hydroxy-pregn-4-ene-3,20-dione (or hydrocortisone) 17-valerate, 21-thiopivalate]	0.75	2.140 mg/pellet					> 3.4 mg/pellet	< 0.24	zero to 3.4	< 0.25	
CCCC(=O)O[C@]1(C(=O)CSC(C)=O)CC[C@H]2[C@@H]3CCC4=CC(=O)C=C[C@]4(C)[C@H]3C(=O)C[C@@]21C [Ex. 3, Pregna-1,4-diene-3,11,20-trione (or prednisone) 17-butyrate, 21-thioacetate]	2.7	0.600 mg/pellet					> 5 mg/pellet	< 0.16		< 0.17	> 5 mg/pellet
CC(=O)SCC(=O)[C@@]1(OC(=O)c2ccccc2)CC[C@H]2[C@@H]3C[C@H](C)C4=CC(=O)C=C[C@]4(C)[C@H]3[C@@H](O)C[C@@]21C [Ex. 4, 11β-hydroxy-6α-methyl-pregna-1,4-diene-3,20-dione (or 6β-methylprednisolone) 17-benzoate, 21-thioacetate]	29	0.056 mg/pellet					> 5 mg/pellet	< 0.16		< 0.17	> 5 mg/pellet
CCC(=O)O[C@]1(C(=O)CSC(=O)CC)CC[C@H]2[C@@H]3C[C@H](C)C4=CC(=O)C=C[C@]4(C)[C@H]3[C@@H](O)C[C@@]21C [Ex. 5, 11β-hydroxy-6α-methyl-pregna-1,4-diene-3,20-dione (or 6α-methylprednisolone) 17-propionate, 21-thiopropionate]	7.7	0.210 mg/pellet					> 1 mg/pellet	< 0.8		< 0.86	> 1 mg/pellet
CCCCC(=O)O[C@]1(C(=O)CSC(=O)CCCC)CC[C@H]2[C@@H]3C[C@H](C)C4=CC(=O)C=C[C@]4(C)[C@H]3[C@@H](O)C[C@@]21C [Ex. 6, 11β-hydroxy-6α-methyl-pregna-1,4-diene-3,20-dione (or 6α-methylprednisolone) 17-valerate, 21-thiovalerate]	8.9	0.180 mg/pellet					> 1 mg/pellet	< 0.8		< 0.86	> 1 mg/pellet
CCCCC(=O)O[C@]1(C(=O)CSC(C)=O)CC[C@H]2[C@@H]3C[C@H](C)C4=CC(=O)C=C[C@]4(C)[C@H]3[C@@H](O)C[C@@]21C [Ex. 7, 11β-hydroxy-6α-methyl-pregna-1,4-diene-3,20-dione (or 6α-methylprednisolone) 17-valerate, 21-thioacetate]	2.0	0.800 mg/pellet					> 1 mg/pellet	< 0.8		< 0.86	> 1 mg/pellet
CC(=O)OC1(C(=O)CSC(C)=O)C(C)CC2C3CCC4=CC(=O)C=CC4(C)C3(F)C(O)CC21C (stereo not drawn) [Ex. 8, 9α-fluoro-11β-hydroxy-16β-methyl-pregna-1,4-diene-3,20-dione (or betamethasone) 17-acetate, 21-thioacetate]	22	0.072 mg/pellet					1 mg/pellet	0.8		0.71	1.20 mg/pellet
